From patent US20110110920A1, “METHOD OF TREATING PERIPHERAL ARTERIAL DISEASE” (priority 2008, published 2011)

Assays:
[1] = test system: arginase 1; assay: Arginase 1 expression in HCAE cells with or without TNFα, western blot; type: cell-based, human; details: TNFα treatment
Description: (§1) Human coronary artery endothelial cells (HCAE cells, Lonza, Walkersville, Md.) were cultured in 5% CO2 at 37° C. in endothelial cell growth medium (EGM) supplemented with 2% fetal bovine serum and Single Quot supplements (Clonetics, San Diego, Calif.; containing epidermal growth factor, hydrocortisone, vascular endothelial growth factor, fibroblast growth factor, insulin growth factor, ascorbic acid, heparin, gentamycin, and amphotericin B). Cells were used between passages 4 and 6 for these studies. HCAE cells were plated at a density of 50,000 cells per well in 12-well plates and were grown for 3 days to reach confluency. […] Cells were then incubated in normoxic or 1% hypoxic conditions for the indicated times.
(§2) The cell lysates were subjected to SDS-PAGE in a 10% polyacrylamide gel and transferred to a nitrocellulose membrane (0.2-μm, Invitrogen). After blocking with 5% milk, the membrane was incubated overnight at 4° C. with primary antibodies against phospho-eNOS (Ser 1177) and eNOS (Cell Signaling Technology, Beverly, Mass.), human type-1 arginase (clone 9C5) (Cell Sciences, Canton, Mass.), or GAPDH (Santa Cruz Biotechnology, Santa Cruz, Calif.). HRP-conjugated anti-mouse or anti-rabbit antibodies (Cell Signaling Technology) were used as secondary antibodies (HRP, horseradish peroxidase). […]

[2] = test system: eNOS; assay: eNOS expression and S1177 phosphorylation in HCAE cells, western blot; type: cell-based, human; details: 24 h
Description: as §1, §2

[3] = test system: eNOS mRNA; assay: eNOS mRNA in HCAE cells, RT-PCR and SYBR Green real-time PCR; type: cell-based, human
Description: Human coronary artery endothelial cells (HCAE cells, Lonza, Walkersville, Md.) were cultured in 5% CO2 at 37° C. in endothelial cell growth medium (EGM) supplemented with 2% fetal bovine serum and Single Quot supplements (Clonetics, San Diego, Calif.; containing epidermal growth factor, hydrocortisone, vascular endothelial growth factor, fibroblast growth factor, insulin growth factor, ascorbic acid, heparin, gentamycin, and amphotericin B). Cells were used between passages 4 and 6 for these studies. HCAE cells were plated at a density of 50,000 cells per well in 12-well plates and were grown for 3 days to reach confluency. […] Cells were then incubated in normoxic or 1% hypoxic conditions for the indicated times. […] For RNA extraction, HCAE cells were cultured in 6-well plates.
Total RNA was isolated using an Ambion isolation kit as described by the manufacturer.
RT-PCR for eNOS was performed by Ready-to-Go RT-PCR Beads (Amersham Biosciences) using a two-step protocol. […]
Samples were coded to provide blinded analysis. […] Quantitative PCR amplifications were done using 2 μl of cDNA in a total volume of 25 μl using SYBR green probes in the SYBR Green PCR Master Mix (ABI). […] The reverse-transcribed cDNA sample cycle threshold values were determined from triplicate samples and normalized to the 18S “housekeeping” gene.

[4] = test system: eNOS; assay: VEGF-induced activation of eNOS in HCAE cells, western blot; type: cell-based, human; details: normoxic HCAE cells, VEGF 50 ng/ml, 1 minute
Description: The membrane was re-probed with anti-GAPDH (glyceraldehyde-3-phosphate dehydrogenase) antibody to show equal protein loading.

[5] = test system: Human coronary artery endothelial (HCAE) cells; assay: Transmembrane migration of endothelial cells toward VEGF (FluoroBlok inserts); type: cell-based; details: hypoxic, VEGF 10 ng/ml as chemoattractant, 22 h
Description: Transmembrane cell migration assays were performed using BD FluoroBlok inserts (BD Bioscience, Bedford, Mass.) as described by the vendor. […] (V) or medium alone (C) was added to the lower chamber of the insert plate as a chemoattractant. Endothelial migration was performed in normoxic or 1% hypoxic conditions. After a 22-hour incubation, cells were labeled post-migration with Calcein AM and measured by detecting the fluorescence of the cells that migrated to the underside of the insert membrane.

[6] = test system: Human coronary artery endothelial (HCAE) cells; assay: Endothelial cell invasion through Matrigel toward VEGF; type: cell-based; details: normoxic or hypoxic, VEGF 10 ng/ml, no TP508
Description: Endothelial cell invasion assays were performed using BD BioCoat™ Angiogenesis System (BD Bioscience, Bedford, Mass.) which utilizes FluoroBlok inserts coated with BD Matrigel Matrix (BD Bioscience, Bedford, Mass.). […] Endothelial cell invasion was performed in normoxic or hypoxic (1% O2) conditions. After 22 hours of incubation, cells were labeled post-invasion with Calcein AM and measured by detecting the fluorescence of the cells that migrated to the underside of insert membrane.

[7] = test system: VEGF mRNA; assay: VEGF mRNA expression in HCMVE cells, real-time PCR; type: cell-based, human; details: VEGF 10 ng/ml, 24 h
Description: Data from one experiment performed in triplicate are shown in FIG. 11 as mean±SD. *p<0.01 compared to control (C) cells in normoxia. ^#p<0.01 compared to control (C) cells in hypoxia.

[8] = test system: Human Lung Microvascular Endothelial Cells (HLME); assay: Survival of serum-deprived HLME cells; type: cell-based; details: serum-deprivation

Substance | expression of arginase 1 (ARG1) relative to control cultures [1] | reduction of eNOS expression relative to normoxic controls [2] [%] | eNOS mRNA expression (RT-PCR) ([3]; 6 h stimulation, 25 or 30 cycles, relative to controls) | decrease of eNOS mRNA level ([3]; 24 h, real-time PCR) [%] | phosphorylation of eNOS on serine 1177, maximum [4] [fold] | migration of control endothelial cells relative to media control cells [5] [%] | invasion of control endothelial cells through Matrigel toward human VEGF [6] | VEGF mRNA in hypoxic cells ([7]; hypoxic) | decrease of VEGF mRNA expression compared to control cells ([7]; normoxic) [fold] | cell survival, agent alone [8]
TNFα | significant increase | 45 | drastically decreased | ~80 | – | – | – | – | – | –
VEGF | – | – | – | – | 2 | ~150 | not stimulated | no effect, or decreased | 2 | increased survival at lower levels
